These results are taken from patent US9920089B2, “Process for producing a solid form of abiraterone acetate” (ZACH SYSTEM, priority 2013, dated 2018).

For series [1] the following is noted: cited from earlier work.
The target in a further series is T1, human cytochrome P45017α (Homo sapiens, UniProt P05093).
T1 sequence (P05093 1-508): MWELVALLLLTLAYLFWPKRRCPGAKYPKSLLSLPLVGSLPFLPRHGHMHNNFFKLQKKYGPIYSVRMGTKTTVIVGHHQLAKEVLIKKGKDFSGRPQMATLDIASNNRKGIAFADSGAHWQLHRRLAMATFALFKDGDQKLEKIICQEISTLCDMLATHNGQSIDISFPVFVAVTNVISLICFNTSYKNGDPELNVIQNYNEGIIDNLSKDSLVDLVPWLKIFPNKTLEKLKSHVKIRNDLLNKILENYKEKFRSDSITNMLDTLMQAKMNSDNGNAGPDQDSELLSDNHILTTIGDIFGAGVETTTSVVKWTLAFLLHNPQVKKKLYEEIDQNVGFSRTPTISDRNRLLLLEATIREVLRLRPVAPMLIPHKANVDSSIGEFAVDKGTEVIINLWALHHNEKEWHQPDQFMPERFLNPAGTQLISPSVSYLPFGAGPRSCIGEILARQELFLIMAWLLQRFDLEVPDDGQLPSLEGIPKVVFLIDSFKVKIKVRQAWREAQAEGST
As to conditions: qualitative statement; cited from earlier work.

Series [2] is described as follows: Particle size distribution by laser diffraction, dry powder method (Malvern Mastersizer 2000). The format is physicochemical. The note with it: milled dried product after spherical agglomeration. How it is done: PSD was determined by laser diffraction-dry powder method with a Malvern Mastersizer 2000 device.

With `CC(=O)O[C@H]1CC[C@@]2(C)C(=CC[C@@H]3[C@@H]2CC[C@]2(C)C(c4cccnc4)=CC[C@@H]32)C1` [Abiraterone acetate, (3β)-17-(3-pyridinyl)-androsta-5,16-dien-3-yl acetate], the “Solubility in 0.1N HCl solution” value in series [1] (0.1N HCl solution) is reported as “very slightly soluble”. Further, the “Solubility in aqueous media” value in series [1] (aqueous media, pH range 2.0 to 12.9) is reported as “practically insoluble”. Moreover, the “Solubility in organic solvents” value in series [1] (organic solvents) was “soluble to freely soluble”. With `C[C@]12CC[C@H](O)CC1=CC[C@@H]1[C@@H]2CC[C@]2(C)C(c3cccnc3)=CC[C@@H]12` [Abiraterone, 17-(3-pyridyl)-androsta-5,16-dien-3β-ol], the “Inhibition of human cytochrome P45017α” value on human cytochrome P45017α was “potent inhibitor”. As for `CC(=O)O[C@H]1CC[C@@]2(C)C(=CC[C@@H]3[C@@H]2CC[C@]2(C)C(c4cccnc4)=CC[C@@H]32)C1` [Example 1, abiraterone acetate], the “Measured Particle Size Distribution D(0.5)” value in series [2] is 4.9 μm. The same measure, in the same setting: then `CC(=O)O[C@H]1CC[C@@]2(C)C(=CC[C@@H]3[C@@H]2CC[C@]2(C)C(c4cccnc4)=CC[C@@H]32)C1` [Example 2, abiraterone acetate], with 10.7 μm. For the compound `CC(=O)O[C@H]1CC[C@@]2(C)C(=CC[C@@H]3[C@@H]2CC[C@]2(C)C(c4cccnc4)=CC[C@@H]32)C1` [Example 3, abiraterone acetate], the “Measured Particle Size Distribution D(0.5)” value in series [2] was found to be 3.7 μm. For the compound `CC(=O)O[C@H]1CC[C@@]2(C)C(=CC[C@@H]3[C@@H]2CC[C@]2(C)C(c4cccnc4)=CC[C@@H]32)C1` [Example 4, abiraterone acetate], the “Measured Particle Size Distribution D(0.5)” value in series [2] was 6.5 μm.
